# Experimental data: US20030153618A1, “Treatment and prevention of herpes simplex infections” (priority 1999, published 2003)
# Tests used:
# [1] = system: Herpes simplex II virus; assay: Back titration plaque assay: PFU counts at stated amounts of compound under test and arginine; format: cell-based, Herpes simplex II virus (BSC cells)
# Procedure: The following experiments were conducted by back titration: Herpes simplex II virus from laboratory stocks was used. BSC cells were grown to confluence in Eagles medium with 15% fetal calf serum, 150 units per milliliter of penicillin and 100 micrograms per milliliter of streptomycin. The cultures were inoculated with 500 PFU of HS II. The virons were allowed to absorb for one hour at 25° C. The tissue cultures were then washed three times with sterile PBS to remove excess media and non-absorbed virons. The cells were then incubated at 37° C. until four-plus cytopathic effects were observed. The cells were then disrupted by slow freeze-thaw two times. The suspension was then clarified by slow speed centrifugation at 4° C. The supemanant suspension was then added to confluent BSC cultures. After one hour absorption, the cells were washed with PBS twice. The cells were overlaid in defined reagent (in triplicate) Eagles media in noble agar. The cells were then incubated at 37° C. until the plaques were easily counted, usually 40 t 72 hours. the cells were then washed two times with PBS and then fixed with 10% H2CO and a 2% sodium acetate. The cells were then stained in 0.1% crystal violet in ethanol. In the tables which follow the concentration of the compound to be tested, in micrograms per milliliter, is listed across the top of the table and the concentration of arginine in micrograms per milliliter is listed down the left side of the table, the count of plaque-forming units being shown in the matrix.
# [2] = system: HSV, Type II; assay: Direct plaque-forming unit (PFU) count in BSC cells in defined media with set lysine (or derivative):arginine ratio; format: cell-based; details: average of three tests
# Procedure: Absorbed virons were absorbed in susceptible cells in chemically defined media and the number of plaques made were counted. (See Davis, B. D., et al., Microbiology, 2nd Ed., Harper & Row, 1973, Part V, and sources cited therein for procedural details and discussion of the plaque method.)
# The cell line chosen was green monkey kidney cells (BSC) that have been passed greater than 41 times. […] The virons were added to a confluent lawn of BSC cells and allowed to absorb at 25° C. for one hour. The unabsorbed virons and the media were removed by washing three times in PBS. […] The control media contained a lysine/arginine ratio of 1:1. The plaques were counted when easily readable. Flasks are done in triplicate.
# [3] = compound 10 μg/ml, arginine 0 μg/ml
# [4] = compound 10 μg/ml, arginine 2.5 μg/ml
# [5] = compound 10 μg/ml, arginine 5.0 μg/ml
# [6] = compound 10 μg/ml, arginine 7.5 μg/ml
# [7] = compound 10 μg/ml, arginine 10 μg/ml
# [8] = compound 10 μg/ml, arginine 15 μg/ml
# [9] = compound 10 μg/ml, arginine 20 μg/ml
# [10] = compound 10 μg/ml, arginine 25 μg/ml
# [11] = compound 25 μg/ml, arginine 0 μg/ml
# [12] = compound 25 μg/ml, arginine 2.5 μg/ml
# [13] = compound 25 μg/ml, arginine 5.0 μg/ml
# [14] = compound 25 μg/ml, arginine 7.5 μg/ml
# [15] = compound 25 μg/ml, arginine 10 μg/ml
# [16] = compound 25 μg/ml, arginine 15 μg/ml
# [17] = compound 25 μg/ml, arginine 20 μg/ml
# [18] = compound 25 μg/ml, arginine 25 μg/ml
# [19] = compound 50 μg/ml, arginine 0 μg/ml
# [20] = compound 50 μg/ml, arginine 2.5 μg/ml
# [21] = compound 50 μg/ml, arginine 5.0 μg/ml
# [22] = compound 50 μg/ml, arginine 7.5 μg/ml
# [23] = compound 50 μg/ml, arginine 10 μg/ml
# [24] = compound 50 μg/ml, arginine 15 μg/ml
# [25] = compound 50 μg/ml, arginine 20 μg/ml
# [26] = compound 50 μg/ml, arginine 25 μg/ml
# [27] = compound 100 μg/ml, arginine 0 μg/ml
# [28] = compound 100 μg/ml, arginine 2.5 μg/ml
# [29] = compound 100 μg/ml, arginine 5.0 μg/ml
# [30] = compound 100 μg/ml, arginine 7.5 μg/ml
# [31] = compound 100 μg/ml, arginine 10 μg/ml
# [32] = compound 100 μg/ml, arginine 15 μg/ml
# [33] = compound 100 μg/ml, arginine 20 μg/ml
# [34] = compound 100 μg/ml, arginine 25 μg/ml
# [35] = compound 200 μg/ml, arginine 0 μg/ml
# [36] = compound 200 μg/ml, arginine 2.5 μg/ml
# [37] = compound 200 μg/ml, arginine 5.0 μg/ml
# [38] = compound 200 μg/ml, arginine 7.5 μg/ml
# [39] = compound 200 μg/ml, arginine 10 μg/ml
# [40] = compound 200 μg/ml, arginine 15 μg/ml
# [41] = compound 200 μg/ml, arginine 20 μg/ml
# [42] = compound 200 μg/ml, arginine 25 μg/ml
# [43] = compound 300 μg/ml, arginine 0 μg/ml
# [44] = compound 300 μg/ml, arginine 2.5 μg/ml
# [45] = compound 300 μg/ml, arginine 5.0 μg/ml
# [46] = compound 300 μg/ml, arginine 7.5 μg/ml
# [47] = compound 300 μg/ml, arginine 10 μg/ml
# [48] = compound 300 μg/ml, arginine 15 μg/ml
# [49] = compound 300 μg/ml, arginine 20 μg/ml
# [50] = compound 300 μg/ml, arginine 25 μg/ml
# [51] = compound 400 μg/ml, arginine 0 μg/ml
# [52] = compound 400 μg/ml, arginine 2.5 μg/ml
# [53] = compound 400 μg/ml, arginine 5.0 μg/ml
# [54] = compound 400 μg/ml, arginine 7.5 μg/ml
# [55] = compound 400 μg/ml, arginine 10 μg/ml
# [56] = compound 400 μg/ml, arginine 15 μg/ml
# [57] = compound 400 μg/ml, arginine 20 μg/ml
# [58] = compound 400 μg/ml, arginine 25 μg/ml
# [59] = compound 500 μg/ml, arginine 0 μg/ml
# [60] = compound 500 μg/ml, arginine 2.5 μg/ml
# [61] = compound 500 μg/ml, arginine 5.0 μg/ml
# [62] = compound 500 μg/ml, arginine 7.5 μg/ml
# [63] = compound 500 μg/ml, arginine 10 μg/ml
# [64] = compound 500 μg/ml, arginine 15 μg/ml
# [65] = compound 500 μg/ml, arginine 20 μg/ml
# [66] = compound 500 μg/ml, arginine 25 μg/ml
# [67] = Compound Ratio to Arginine 10:1
# [68] = Compound Ratio to Arginine 100:1
structure (smiles),measurement,setting,value
CC(N)CCCC(N)C(=O)O (stereo not shown) [6-Methyl lysine],order of blocking the arginine molecule (rank of efficacy),[1]; among the tested derivatives,third most efficacious
same,P.F.U. Count,[1]; [3],0
same,P.F.U. Count,[1]; [4],0
same,P.F.U. Count,[1]; [5],0
same,P.F.U. Count,[1]; [6],0
same,P.F.U. Count,[1]; [7],4.0 × 10^3
same,P.F.U. Count,[1]; [8],1.8 × 10^3
same,P.F.U. Count,[1]; [9],2.8 × 10^6
same,P.F.U. Count,[1]; [10],2.7 × 10^5
same,P.F.U. Count,[1]; [11],0
same,P.F.U. Count,[1]; [12],0
same,P.F.U. Count,[1]; [13],0
same,P.F.U. Count,[1]; [14],0
same,P.F.U. Count,[1]; [15],2.1 × 10^3
same,P.F.U. Count,[1]; [16],2.1 × 10^3
same,P.F.U. Count,[1]; [17],2.4 × 10^5
same,P.F.U. Count,[1]; [18],2.9 × 10^5
same,P.F.U. Count,[1]; [19],0
same,P.F.U. Count,[1]; [20],0
same,P.F.U. Count,[1]; [21],0
same,P.F.U. Count,[1]; [22],0
same,P.F.U. Count,[1]; [23],0
same,P.F.U. Count,[1]; [24],1.7 × 10^3
same,P.F.U. Count,[1]; [25],1.7 × 10^5
same,P.F.U. Count,[1]; [26],2.0 × 10^5
same,P.F.U. Count,[1]; [27],0
same,P.F.U. Count,[1]; [28],0
same,P.F.U. Count,[1]; [29],0
same,P.F.U. Count,[1]; [30],0
same,P.F.U. Count,[1]; [31],0
same,P.F.U. Count,[1]; [32],0
same,P.F.U. Count,[1]; [33],6.4 × 10^4
same,P.F.U. Count,[1]; [34],5.8 × 10^4
same,P.F.U. Count,[1]; [35],0
same,P.F.U. Count,[1]; [36],0
same,P.F.U. Count,[1]; [37],0
same,P.F.U. Count,[1]; [38],0
same,P.F.U. Count,[1]; [39],0
same,P.F.U. Count,[1]; [40],0
same,P.F.U. Count,[1]; [41],6.9 × 10^4
same,P.F.U. Count,[1]; [42],4.7 × 10^4
same,P.F.U. Count,[1]; [43],0
same,P.F.U. Count,[1]; [44],0
same,P.F.U. Count,[1]; [45],0
same,P.F.U. Count,[1]; [46],0
same,P.F.U. Count,[1]; [47],0
same,P.F.U. Count,[1]; [48],0
same,P.F.U. Count,[1]; [49],5.0 × 10^3
same,P.F.U. Count,[1]; [50],4.0 × 10^4
same,P.F.U. Count,[1]; [51],0
same,P.F.U. Count,[1]; [52],0
same,P.F.U. Count,[1]; [53],0
same,P.F.U. Count,[1]; [54],0
same,P.F.U. Count,[1]; [55],0
same,P.F.U. Count,[1]; [56],0
same,P.F.U. Count,[1]; [57],690
same,P.F.U. Count,[1]; [58],3.9 × 10^3
same,P.F.U. Count,[1]; [59],0
same,P.F.U. Count,[1]; [60],0
same,P.F.U. Count,[1]; [61],0
same,P.F.U. Count,[1]; [62],0
same,P.F.U. Count,[1]; [63],0
same,P.F.U. Count,[1]; [64],0
same,P.F.U. Count,[1]; [65],56
same,P.F.U. Count,[1]; [66],3.71 × 10^3
same,P.F.U. Count,[2]; [67],<5
same,P.F.U. Count,[2]; [68],<5
CC(CCN)CC(N)C(=O)O (stereo not shown) [4-Methyl lysine],P.F.U. Count,[1]; [3],37
same,P.F.U. Count,[1]; [4],110
same,P.F.U. Count,[1]; [5],3.7 × 10^3
same,P.F.U. Count,[1]; [6],7.2 × 10^4
same,P.F.U. Count,[1]; [7],9.6 × 10^4
same,P.F.U. Count,[1]; [8],2.3 × 10^5
same,P.F.U. Count,[1]; [9],3.1 × 10^5
same,P.F.U. Count,[1]; [10],3.3 × 10^5
same,P.F.U. Count,[1]; [11],10
same,P.F.U. Count,[1]; [12],74
same,P.F.U. Count,[1]; [13],310
same,P.F.U. Count,[1]; [14],6.6 × 10^4
same,P.F.U. Count,[1]; [15],8.7 × 10^4
same,P.F.U. Count,[1]; [16],9.6 × 10^4
same,P.F.U. Count,[1]; [17],3.3 × 10^5
same,P.F.U. Count,[1]; [18],3.4 × 10^5
same,P.F.U. Count,[1]; [19],0
same,P.F.U. Count,[1]; [20],0
same,P.F.U. Count,[1]; [21],671
same,P.F.U. Count,[1]; [22],5.0 × 10^4
same,P.F.U. Count,[1]; [23],7.0 × 10^4
same,P.F.U. Count,[1]; [24],7.9 × 10^4
same,P.F.U. Count,[1]; [25],3.1 × 10^5
same,P.F.U. Count,[1]; [26],3.6 × 10^5
same,P.F.U. Count,[1]; [27],0
same,P.F.U. Count,[1]; [28],0
same,P.F.U. Count,[1]; [29],371
same,P.F.U. Count,[1]; [30],4.2 × 10^4
same,P.F.U. Count,[1]; [31],4.0 × 10^7
same,P.F.U. Count,[1]; [32],5.0 × 10^4
same,P.F.U. Count,[1]; [33],3.6 × 10^5
same,P.F.U. Count,[1]; [34],3.1 × 10^5
same,P.F.U. Count,[1]; [35],0
same,P.F.U. Count,[1]; [36],0
same,P.F.U. Count,[1]; [37],191
same,P.F.U. Count,[1]; [38],1.0 × 10^4
same,P.F.U. Count,[1]; [39],1.8 × 10^4
same,P.F.U. Count,[1]; [40],6.8 × 10^4
same,P.F.U. Count,[1]; [41],3.2 × 10^5
same,P.F.U. Count,[1]; [42],3.0 × 10^5
same,P.F.U. Count,[1]; [43],0
same,P.F.U. Count,[1]; [44],0
same,P.F.U. Count,[1]; [45],169
same,P.F.U. Count,[1]; [46],1.1 × 10^7
same,P.F.U. Count,[1]; [47],1.9 × 10^4
same,P.F.U. Count,[1]; [48],2.7 × 10^4
same,P.F.U. Count,[1]; [49],3.1 × 10^5
same,P.F.U. Count,[1]; [50],3.3 × 10^5
same,P.F.U. Count,[1]; [51],0
same,P.F.U. Count,[1]; [52],0
same,P.F.U. Count,[1]; [53],671
same,P.F.U. Count,[1]; [54],1.9 × 10^3
same,P.F.U. Count,[1]; [55],1.7 × 10^4
same,P.F.U. Count,[1]; [56],2.0 × 10^4
same,P.F.U. Count,[1]; [57],3.0 × 10^5
same,P.F.U. Count,[1]; [58],3.3 × 10^5
same,P.F.U. Count,[1]; [59],0
same,P.F.U. Count,[1]; [60],0
same,P.F.U. Count,[1]; [61],239
same,P.F.U. Count,[1]; [62],6.7 × 10^3
same,P.F.U. Count,[1]; [63],1.3 × 10^4
same,P.F.U. Count,[1]; [64],1.4 × 10^4
same,P.F.U. Count,[1]; [65],2.4 × 10^5
same,P.F.U. Count,[1]; [66],2.9 × 10^5
same,P.F.U. Count,[2]; [67],541
same,P.F.U. Count,[2]; [68],140
